The source of these data is US6150359A, “Naphthyridinones for inhibiting protein tyrosine kinase and cell cycle kinase mediated cellular proliferation” (Warner-Lambert Company, priority 2000, dated 2000).

Some results are limits rather than exact numbers.

Common to all, as to format: cell-based
In assay [1] the target is T1, PDGF receptor (Rattus norvegicus, UniProt Q05030).
T1 construct: endogenous in cells; host or cells: rat aorta smooth muscle cells, primary culture, passages 5 to 20
Put plainly: PDGF Receptor Autophosphorylation Assay in rat aorta smooth muscle cells. The following applies: PDGF-BB 30 ng/mL, 5 minutes, 2 hours preincubation, read-out: Inhibition of PDGF-Stimulated Receptor Autophosphorylation IC50. As to the method: PDGF Receptor Autophosphorylation Assay. Rat aorta smooth muscle cells (RASMC.) are isolated from the thoracic aorta of rats and explanted according to the method of Ross, J. Cell. Biol., 1971;30:172-186. Cells are grown in Dulbecco's modified Eagle's medium (DMEM, Gibco) containing 10% fetal calf serum (FBS, Hyclone, Logan, Utah), 1% glutamine (Gibco), and 1% penicillin/streptomycin (Gibco). Cells are identified as smooth muscle cells by their "hill and valley" growth pattern and by fluorescent staining with a monoclonal antibody specific for SMC […] (Sigma). RASMC are used between passages 5 and 20 for all experiments. Test compounds are prepared in dimethylsulfoxide (DMSO) in order to achieve consistency in the vehicle and to ensure compound solubility. Appropriate DMSO controls are simultaneously evaluated with the test compounds.
Rat aortic smooth muscle cells are grown to confluency in 100 mm dishes. Growth medium is removed and replaced with serum-free medium, and cells are incubated at 37° C. for an additional 24 hours. Test compounds are then added directly to the medium and cells incubated for an additional 2 hours. After 2 hours, PDGF-BB is added at a final concentration of 30 ng/mL for 5 minutes at 37° C. to stimulate autophosphorylation of PDGF receptors. Following growth factor treatment, the medium is removed, and cells are washed with cold phosphate-buffered saline and immediately lysed with 1 mL of lysis buffer (50 mM Hepes, pH 7.5, 150 mM NaCl, 10% glycerol, 1% Triton-X 100, 1 mM EDTA, 1 mM EGTA, 50 mM NaF, 1 mM sodium orthovanadate, 30 mM p-nitrophenyl phosphate, 10 mM sodium pyrophosphate, 1 mM phenylmethyl sulfonyl fluoride, 10 μg/mL aprotinin, and 10 μg/mL leupeptin). Lysates are centrifuged at 10,000×g for 10 minutes. Supernatants are incubated with 10 μL of rabbit anti-human PDGF type AB receptor antibody (1:1000) for 2 hours. Following the incubation, protein-A-sepharose beads are added for 2 hours with continuous mixing, and immune complexes bound to the beads washed four times with 1 mL lysis wash buffer. Immune complexes are solubilized in 40 μL of Laemmli sample buffer and electrophoresed in 8% to 16% SDS polyacrylamide gels. […] Following extensive washing with PBS-0.2% tween-20, the blots are incubated with horseradish peroxidase labeled goat anti-mouse IgG (1:5000; Bio-Rad Inc., Hercules, Calif.), and protein levels are detected by enhanced chemiluminescence (ECL) detection system according to the instructions of the supplier (Amersham Inc., Arlington Heights, Ill.). The density of the protein bands are determined using NIH Image software (v. 1.56) and IC50 values are generated from the densitometric data.

Assay [2] relates to HT-29 cells. The experiment in a line: Human Colon Carcinoma Clonogenic Assay, HT-29. The following applies: HT-29, 2 days with drug, colonies after approximately 2 weeks. As to the method: Human Colon Carcinoma Clonozenic Assay. Human colon carcinoma cells are seeded into 6 well plates in volumes of 3 mL and allowed to incubate overnight (37° C., 5% CO2, 95% air). SW-620 cells are seeded at 7×10^5 per well; HCT-8 cells are seeded at 5×10^5 per well; HT-29 cells are seeded at 4×10^5 cells per well. Serially diluted drugs are prepared at 200 times the final concentration, and 15 μL are added to each of duplicate wells. Cells are incubated with drug for 2 days, rinsed once with 1 mL of trypsin+EDTA, and then trypsinized with the same trypsin solution. After trituration and centrifugation at 750×g for 3 minutes, the cells are suspended in serum-free growth medium and counted using an electronic particle counter. An agarose mixture appropriate for the cloning of each cell line is made using 10% fetal bovine serum in growth medium (SW-620-0.35% agarose, HCT-8 and HT-29-0.4% agarose). […] One; milliliter of each of these cell suspensions is added to duplicate wells of 6 well plates previously prepared with 10% serum/growth medium/1% agarose plugs. The cells in these plates are incubated for approximately 2 weeks in the incubator and stained with 1 mL per well of 1 mg/mL iodonitrotetrazolium violet stain. The visible colonies are counted with an electronic optical colony counter and the clonogenicity of treated cells calculated in comparison to untreated control cells.

Assay [3] deals with HT-29 cells. Put plainly: Human Colon Carcinoma Growth Delay Assay, HT-29. The following applies: 72 h, HT-29, 3 days. Here is the method: Human Colon Carcinoma Growth Delay Assay. Human colon carcinoma cells are seeded into 96-well tissue culture plates in a final volume of 180 μL of 10% fetal bovine serum containing growth media and allowed to incubate overnight (37° C., 5% CO2, 95% air). Cells of the SW-620 cell line are seeded at 1.0-1.5×10^4 cells per well. Cells of the HCT-8 and HT-29 cell lines are seeded at 2-4×10^3 cells per well. Serially diluted drug solutions are prepared in growth medium at 10 times concentration; 20 μL of these solutions are added to duplicate wells and incubated with the cells for 3 days in a cell culture incubator. At the end of the incubation period, cells are fixed with 100 μL per well of 10% trichloroacetic acid after removing the drug/culture medium. The plates are washed five times with tap water and stained with 100 μL per well of 0.075% sulfrhodamine B in 1% acetic acid for 10 minutes. The plates are rinsed four times and allowed to air dry. The stain in the wells are solubilized by the addition of 10 mM unbuffered Tris base and the absorbance read using a microtiter plate optical reader. Inhibition of cell growth is calculated from absorbance data of the treated cells compared to untreated control cells.

T1 sequence (Q05030 32-1097): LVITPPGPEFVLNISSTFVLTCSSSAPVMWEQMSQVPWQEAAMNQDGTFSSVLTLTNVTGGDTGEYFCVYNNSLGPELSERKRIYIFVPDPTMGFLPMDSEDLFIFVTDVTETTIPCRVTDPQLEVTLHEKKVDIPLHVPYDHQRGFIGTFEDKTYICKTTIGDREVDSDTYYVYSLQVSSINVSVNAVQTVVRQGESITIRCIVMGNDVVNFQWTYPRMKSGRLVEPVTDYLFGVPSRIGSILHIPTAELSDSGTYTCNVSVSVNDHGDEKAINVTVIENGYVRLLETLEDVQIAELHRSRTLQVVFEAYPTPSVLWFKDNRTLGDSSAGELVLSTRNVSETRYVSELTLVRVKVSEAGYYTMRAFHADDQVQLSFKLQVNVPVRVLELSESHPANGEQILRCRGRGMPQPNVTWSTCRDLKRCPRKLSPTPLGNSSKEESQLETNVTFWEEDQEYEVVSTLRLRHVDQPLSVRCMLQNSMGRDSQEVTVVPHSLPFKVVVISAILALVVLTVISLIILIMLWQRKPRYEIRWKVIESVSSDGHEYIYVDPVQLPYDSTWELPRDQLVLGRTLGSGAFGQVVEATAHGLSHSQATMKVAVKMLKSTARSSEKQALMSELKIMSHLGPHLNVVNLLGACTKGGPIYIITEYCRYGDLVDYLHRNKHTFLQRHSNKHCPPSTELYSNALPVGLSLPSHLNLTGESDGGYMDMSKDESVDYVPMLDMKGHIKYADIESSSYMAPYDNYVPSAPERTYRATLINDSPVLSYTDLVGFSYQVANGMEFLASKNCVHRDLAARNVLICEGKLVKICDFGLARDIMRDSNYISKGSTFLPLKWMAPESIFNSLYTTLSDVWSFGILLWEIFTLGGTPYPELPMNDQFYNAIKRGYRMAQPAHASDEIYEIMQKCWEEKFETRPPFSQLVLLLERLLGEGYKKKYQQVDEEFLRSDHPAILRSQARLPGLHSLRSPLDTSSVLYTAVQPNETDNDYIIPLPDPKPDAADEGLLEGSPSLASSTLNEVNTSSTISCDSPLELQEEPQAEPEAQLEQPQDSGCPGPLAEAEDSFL

Regarding `CCN(CC)CCCCNc1cc2c(cn1)cc(-c1c(Cl)cccc1Cl)c(=O)n2C` [Example F, 3-(2,6-dichlorophenyl)-7-[4-(diethylamino)butylamino]-1-methyl-1H-[1,6]naphthyridin-2-one], the values for the IC50 in assay [1], in assay [2] and in assay [3] were 490 nM, over 5000 nM and 1500 nM, respectively.
As to `CN1CCN(CCCNc2cc3c(cn2)cc(-c2c(Cl)cccc2Cl)c(=O)n3C)CC1` [Example H, 3-(2,6-dichlorophenyl)-1-methyl-7-[3-(4-methylpiperazin-1-yl)propylamino]-1H-[1,6]naphthyridin-2-one], the IC50 in assay [1] is over 10000 nM; in assay [2] it was over 5000 nM; in assay [3], 2200 nM.
As for `CCN(CC)CCOc1ccc(Nc2cc3c(cn2)cc(-c2c(Cl)cccc2Cl)c(=O)n3C)cc1` [Example P, 3-(2,6-dichlorophenyl)-7-[(4-(2-(diethylamino)ethoxy)phenyl)amino]-1-methyl-1H-[1,6]naphthyridin-2-one], the IC50 is 230 nM in assay [1], over 5000 nM in assay [2] and 800 nM in assay [3].
For the compound `CN1CCN(CCOc2ccc(Nc3cc4c(cn3)cc(-c3c(Cl)cccc3Cl)c(=O)n4C)cc2)CC1` [Example S, 3-(2,6-dichlorophenyl)-1-methyl-7-[(4-(2-(4-methylpiperazin-1-yl)ethoxy)phenyl)amino]-1H-[1,6]naphthyridin-2-one], the IC50 in assay [1] stood at 810 nM; in assay [3], 900 nM.
